How the values were obtained:
DGKζ = biological target: T1, DGKζ (Homo sapiens, UniProt Q13574); assay: DGKζ biochemical assay (ADP-Glo); settings: read-out: DGK ζ IC50
T1 construct: purchased Carna 12-110

DGKα = DGKα (Homo sapiens, UniProt P23743); assay: DGKα biochemical assay (ADP-Glo); settings: read-out: DGK α IC50
Summary of the method: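 ADP-Glo kinase assay using OAG/PS (1:2) lipid substrate, sonicated, in HEPES pH 7.0 buffer with MgCl2, CaCl2, DTT, BSA, Triton X-100. Enzyme preincubated with compound 30 min at RT; substrate with ATP (DGKα: 400 μM) added, 45 min RT. Luminescence read; % inhibition vs DMSO and no-enzyme controls.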

T1 sequence (Q13574 1-929 isoform Q13574-4): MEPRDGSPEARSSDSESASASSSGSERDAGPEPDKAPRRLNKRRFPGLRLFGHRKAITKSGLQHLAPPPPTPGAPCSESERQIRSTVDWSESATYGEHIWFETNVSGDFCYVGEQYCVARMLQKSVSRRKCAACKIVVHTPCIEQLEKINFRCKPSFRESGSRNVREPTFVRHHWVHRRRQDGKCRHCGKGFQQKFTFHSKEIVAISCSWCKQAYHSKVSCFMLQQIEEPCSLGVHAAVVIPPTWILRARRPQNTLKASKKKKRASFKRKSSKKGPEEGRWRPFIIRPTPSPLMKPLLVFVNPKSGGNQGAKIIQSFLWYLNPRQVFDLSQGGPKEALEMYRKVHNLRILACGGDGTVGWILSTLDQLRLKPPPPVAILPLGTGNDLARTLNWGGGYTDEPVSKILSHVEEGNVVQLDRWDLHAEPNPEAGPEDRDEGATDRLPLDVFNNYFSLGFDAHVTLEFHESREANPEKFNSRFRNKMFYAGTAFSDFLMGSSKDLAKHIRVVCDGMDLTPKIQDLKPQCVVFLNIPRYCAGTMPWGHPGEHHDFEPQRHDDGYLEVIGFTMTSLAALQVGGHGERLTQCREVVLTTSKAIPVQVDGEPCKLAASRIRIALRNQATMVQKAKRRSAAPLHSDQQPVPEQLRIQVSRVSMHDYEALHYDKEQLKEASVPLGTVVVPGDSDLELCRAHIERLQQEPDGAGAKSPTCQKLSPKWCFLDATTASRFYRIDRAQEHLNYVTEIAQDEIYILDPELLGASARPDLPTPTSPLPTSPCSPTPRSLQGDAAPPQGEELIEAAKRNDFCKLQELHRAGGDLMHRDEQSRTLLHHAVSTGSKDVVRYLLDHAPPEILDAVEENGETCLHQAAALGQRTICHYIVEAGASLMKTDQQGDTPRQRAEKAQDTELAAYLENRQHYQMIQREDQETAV
Sequence of DGKα (P23743 whole entry): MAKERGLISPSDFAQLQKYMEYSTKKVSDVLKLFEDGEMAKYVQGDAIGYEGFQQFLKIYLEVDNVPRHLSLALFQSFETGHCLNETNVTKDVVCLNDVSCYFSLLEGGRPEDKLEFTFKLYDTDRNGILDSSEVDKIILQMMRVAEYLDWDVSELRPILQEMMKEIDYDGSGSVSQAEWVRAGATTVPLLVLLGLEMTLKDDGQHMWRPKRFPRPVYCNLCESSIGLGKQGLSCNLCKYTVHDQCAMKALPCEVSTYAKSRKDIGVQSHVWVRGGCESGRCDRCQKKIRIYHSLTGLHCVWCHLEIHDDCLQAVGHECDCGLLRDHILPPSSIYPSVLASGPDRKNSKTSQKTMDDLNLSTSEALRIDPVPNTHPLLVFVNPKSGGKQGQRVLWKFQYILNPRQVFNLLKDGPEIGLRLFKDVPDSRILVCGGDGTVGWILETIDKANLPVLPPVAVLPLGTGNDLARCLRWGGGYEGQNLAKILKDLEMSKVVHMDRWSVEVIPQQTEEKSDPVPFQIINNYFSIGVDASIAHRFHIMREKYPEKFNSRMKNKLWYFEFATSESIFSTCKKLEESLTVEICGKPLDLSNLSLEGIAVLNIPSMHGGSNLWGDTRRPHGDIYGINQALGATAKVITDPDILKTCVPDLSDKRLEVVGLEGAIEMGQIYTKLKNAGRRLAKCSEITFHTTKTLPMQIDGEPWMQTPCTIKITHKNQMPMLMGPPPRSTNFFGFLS

| SMILES | IC50 (DGKζ) [nM] | IC50 (DGKα) [nM] |
| --- | --- | --- |
| COc1cccc(N(CC2CC2)[C@H]2CC[C@H](N(C)c3c(C#N)c(=O)n(C)c4cccnc34)CC2)c1 [Example 13, trans-4-((4-((cyclopropylmethyl)(3-methoxyphenyl)amino)cyclohexyl)(methyl)amino)-1-methyl-2-oxo-1,2-dihydro-1,5-naphthyridine-3-carbonitrile] | ≥ 1000 | 10 to 100 |
| COc1cccc(N(CC2CC2)[C@H]2CC[C@H](N(C)c3cc(=O)n(C)c4ccc(C#N)nc34)CC2)c1 [Example 14, trans-8-((4-((cyclopropylmethyl)(3-methoxyphenyl)amino)cyclohexyl)(methyl)amino)-5-methyl-6-oxo-5,6-dihydro-1,5-naphthyridine-2-carbonitrile] | ≥ 1000 | ≥ 1000 |
| COc1cccc(N(CC2CC2)[C@H]2CC[C@@H](N(C)c3c(C#N)c(=O)n(C)c4cccnc34)CC2)c1 [Example 15, cis-4-((4-((cyclopropylmethyl)(3-methoxyphenyl)amino)cyclohexyl)(methyl)amino)-1-methyl-2-oxo-1,2-dihydro-1,5-naphthyridine-3-carbonitrile] | ≥ 1000 | 100 to 1000 |
| Cn1c(=O)c(C#N)c(N(C)[C@H]2CC[C@@H](N(c3ccc(F)cc3)C3CCC3)CC2)c2nc(C#N)ccc21 [Example 16] | 100 to 1000 | < 10 |
| COc1cc(F)ccc1N(C1CCC1)[C@H]1CC[C@@H](N(C)c2c(C#N)c(=O)n(C)c3ccc(Cl)nc23)CC1 [Example 17, cis-6-chloro-4-((4-(cyclobutyl(4-fluoro-2-methoxyphenyl)amino)cyclohexyl)(methyl)amino)-1-methyl-2-oxo-1,2-dihydro-1,5-naphthyridine-3-carbonitrile] | ≥ 1000 | ≥ 1000 |
| Cn1c(=O)c(C#N)c(N(C)[C@H]2CC[C@H](N(c3ccc(F)cc3)C3CCC3)CC2)c2nc(C#N)ccc21 [Example 19] | 100 to 1000 | 100 to 1000 |
| Cn1c(=O)c(C#N)c(N(C)[C@H]2CC[C@H](N(c3ccc(F)cc3)C3CCC3)CC2)c2nc(Cl)ccc21 [Example 20, trans-6-chloro-4-((4-(cyclobutyl(4-fluorophenyl)amino)cyclohexyl)(methyl)amino)-1-methyl-2-oxo-1,2-dihydro-1,5-naphthyridine-3-carbonitrile] | ≥ 1000 | 10 to 100 |
| COc1cccc(N(CC2CC2)[C@H]2CC[C@H](N(C)c3c(C#N)c(=O)n(C)c4ccc(Cl)nc34)CC2)c1 [Example 21, trans-6-chloro-4-((4-((cyclopropylmethyl)(3-methoxyphenyl)amino)cyclohexyl)(methyl)amino)-1-methyl-2-oxo-1,2-dihydro-1,5-naphthyridine-3-carbonitrile] | ≥ 1000 | 10 to 100 |
| Cn1c(=O)c(C#N)c(N(C)[C@H]2CC[C@@H](N(CC3CC3)c3cccc(F)c3)CC2)c2nc(Cl)ccc21 [Example 22, cis-6-chloro-4-((4-((cyclopropylmethyl)(3-fluorophenyl)amino)cyclohexyl)(methyl)amino)-1-methyl-2-oxo-1,2-dihydro-1,5-naphthyridine-3-carbonitrile] | ≥ 1000 | ≥ 1000 |
| Cn1c(=O)c(C#N)c(N(C)[C@H]2CC[C@H](N(CC3CC3)c3cccc(F)c3)CC2)c2nc(Cl)ccc21 [Example 23, trans-6-chloro-4-((4-((cyclopropylmethyl)(3-fluorophenyl)amino)cyclohexyl)(methyl)amino)-1-methyl-2-oxo-1,2-dihydro-1,5-naphthyridine-3-carbonitrile] | 100 to 1000 | 10 to 100 |
| Cn1c(=O)cc(N(C)[C@H]2CC[C@@H](N(CC3CC3)c3cccc(F)c3)CC2)c2nc(C#N)ccc21 [Example 24, cis-8-((4-((cyclopropylmethyl)(3-fluorophenyl)amino)cyclohexyl)(methyl)amino)-5-methyl-6-oxo-5,6-dihydro-1,5-naphthyridine-2-carbonitrile] | ≥ 1000 | 10 to 100 |
| Cn1c(=O)cc(N(C)[C@H]2CC[C@H](N(CC3CC3)c3cccc(F)c3)CC2)c2nc(C#N)ccc21 [Example 25, trans-8-((4-((cyclopropylmethyl)(3-fluorophenyl)amino)cyclohexyl)(methyl)amino)-5-methyl-6-oxo-5,6-dihydro-1,5-naphthyridine-2-carbonitrile] | ≥ 1000 | ≥ 1000 |
| COc1cc(N(CC2CC2)[C@H]2CC[C@@H](N(C)c3c(C#N)c(=O)n(C)c4ccc(Cl)nc34)CC2)ccc1F [Example 32, cis-6-chloro-4-((4-((cyclopropylmethyl)(4-fluoro-3-methoxyphenyl)amino)cyclohexyl)(methyl)amino)-1-methyl-2-oxo-1,2-dihydro-1,5-naphthyridine-3-carbonitrile] | ≥ 1000 | 10 to 100 |
| COc1cc(N(CC2CC2)[C@H]2CC[C@H](N(C)c3cc(=O)n(C)c4ccc(C#N)nc34)CC2)ccc1F [Example 36, trans-8-((4-((cyclopropylmethyl)(4-fluoro-3-methoxyphenyl)amino)cyclohexyl)(methyl)amino)-5-methyl-6-oxo-5,6-dihydro-1,5-naphthyridine-2-carbonitrile] | ≥ 1000 | ≥ 1000 |

The remaining lines, values ahead:

| IC50 (DGKζ) [nM] | IC50 (DGKα) [nM] | SMILES |
| --- | --- | --- |
| 100 to 1000 | 100 to 1000 | COc1cc(F)ccc1N(C1CCC1)[C@H]1CC[C@@H](N(C)c2c(C#N)c(=O)n(C)c3ccc(C#N)nc23)CC1 [Example 18, cis-8-((4-(cyclobutyl(4-fluoro-2-methoxyphenyl)amino)cyclohexyl)(methyl)amino)-5-methyl-6-oxo-5,6-dihydro-1,5-naphthyridine-2,7-dicarbonitrile] |
| 100 to 1000 | 10 to 100 | Cn1c(=O)c(C#N)c(N(C)[C@H]2CC[C@@H](N(CC3CC3)c3cccc(F)c3)CC2)c2nc(C#N)ccc21 [Example 26, cis-8-((4-((cyclopropylmethyl)(3-fluorophenyl)amino)cyclohexyl)(methyl)amino)-5-methyl-6-oxo-5,6-dihydro-1,5-naphthyridine-2,7-dicarbonitrile] |
| 100 to 1000 | 100 to 1000 | Cn1c(=O)c(C#N)c(N(C)[C@H]2CC[C@H](N(CC3CC3)c3cccc(F)c3)CC2)c2nc(C#N)ccc21 [Example 27, trans-8-((4-((cyclopropylmethyl)(3-fluorophenyl)amino)cyclohexyl)(methyl)amino)-5-methyl-6-oxo-5,6-dihydro-1,5-naphthyridine-2,7-dicarbonitrile] |
| 100 to 1000 | 10 to 100 | COc1cccc(N(CC2CC2)[C@H]2CC[C@@H](N(C)c3c(C#N)c(=O)n(C)c4ccc(C#N)nc34)CC2)c1 [Example 28, cis-8-((4-((cyclopropylmethyl)(3-methoxyphenyl)amino)cyclohexyl)(methyl)amino)-5-methyl-6-oxo-5,6-dihydro-1,5-naphthyridine-2,7-dicarbonitrile] |
| ≥ 1000 | 100 to 1000 | COc1cccc(N(CC2CC2)[C@H]2CC[C@H](N(C)c3c(C#N)c(=O)n(C)c4ccc(C#N)nc34)CC2)c1 [Example 29, trans-8-((4-((cyclopropylmethyl)(3-methoxyphenyl)amino)cyclohexyl)(methyl)amino)-5-methyl-6-oxo-5,6-dihydro-1,5-naphthyridine-2,7-dicarbonitrile] |
| 10 to 100 | < 10 | Cn1c(=O)c(C#N)c(N(C)[C@H]2CC[C@@H](N(CC3CC3)c3ccc(F)cc3)CC2)c2nc(C#N)ccc21 [Example 30, cis-8-((4-((cyclopropylmethyl)(4-fluorophenyl)amino)cyclohexyl)(methyl)amino)-5-methyl-6-oxo-5,6-dihydro-1,5-naphthyridine-2,7-dicarbonitrile] |
| 100 to 1000 | 100 to 1000 | COc1cc(F)ccc1N(CC1CC1)[C@H]1CC[C@@H](N(C)c2c(C#N)c(=O)n(C)c3ccc(C#N)nc23)CC1 [Example 31, cis-8-((4-((cyclopropylmethyl)(4-fluoro-2-methoxyphenyl)amino)cyclohexyl)(methyl)amino)-5-methyl-6-oxo-5,6-dihydro-1,5-naphthyridine-2,7-dicarbonitrile] |
| 100 to 1000 | 100 to 1000 | COc1cc(N(CC2CC2)[C@H]2CC[C@@H](N(C)c3c(C#N)c(=O)n(C)c4ccc(C#N)nc34)CC2)ccc1F [Example 33, cis-8-((4-((cyclopropylmethyl)(4-fluoro-3-methoxyphenyl)amino)cyclohexyl)(methyl)amino)-5-methyl-6-oxo-5,6-dihydro-1,5-naphthyridine-2,7-dicarbonitrile] |
| ≥ 1000 | 100 to 1000 | COc1cc(N(CC2CC2)[C@H]2CC[C@H](N(C)c3c(C#N)c(=O)n(C)c4ccc(C#N)nc34)CC2)ccc1F [Example 34, trans-8-((4-((cyclopropylmethyl)(4-fluoro-3-methoxyphenyl)amino)cyclohexyl)(methyl)amino)-5-methyl-6-oxo-5,6-dihydro-1,5-naphthyridine-2,7-dicarbonitrile] |
| ≥ 1000 | < 10 | Cn1c(=O)c(C#N)c(N(C)[C@H]2CC[C@@H](N(CC3CC3)c3ccc(Cl)cc3)CC2)c2nc(C#N)ccc21 [Example 35, cis-8-((4-((4-chlorophenyl)(cyclopropylmethyl)amino)cyclohexyl)(methyl)amino)-5-methyl-6-oxo-5,6-dihydro-1,5-naphthyridine-2,7-dicarbonitrile] |
| 100 to 1000 | ≥ 1000 | COc1cc(F)ccc1N(C1CC1)[C@H]1CC[C@H](N(C)c2c(C#N)c(=O)n(C)c3ccc(C#N)nc23)CC1 [Example 37, trans-8-((4-(cyclopropyl(4-fluoro-2-methoxyphenyl)amino)cyclohexyl)(methyl)amino)-5-methyl-6-oxo-5,6-dihydro-1,5-naphthyridine-2,7-dicarbonitrile] |
